Test [1] concerns recombinant human PDE9. Also noted: method as in PMID 25555060, PMID 21766240. The note with it: cited from earlier work.
The subject of test [2] is P. falciparum ABS. The note with it: read-out: EC50 P. falciparum ABS growth inhibition; cited from earlier work.
Test [3] deals with T1, PDEβ (Plasmodium falciparum, UniProt Q8I6Z7).
T1 construct: endogenous in cells; host or cells: P. falciparum 3D7 schizonts, NP-40 membrane lysate
Description: cAMP hydrolysis SPA in schizont membrane lysates. Format: biochemical. As to conditions: read-out: IC50 against PDEβ. From the text:
We identified three PDE inhibitor chemical series generated by Pfizer, with structures in the public domain, which have activity against malaria parasites (see the “Chemistry strategy summary” section). These series were originally designed to inhibit human PDEs and were chosen as chemistry start points to optimize activity against malaria parasites. More than 400 new analogs were generated (full details of their properties will be reported in a separate paper, in preparation) through iterative rounds of synthesis and testing. The chemistry start points for each of the series were SAL-0010042 (5-benzyl), SAL-0010043 (5-aryl), and SAL-0010034 (2-alkyl) (see Materials and Methods and fig. S1A). S2. Analytical data for these compounds are provided in data S1. All newly synthesized compounds were tested for inhibition of native cAMP-PDE activity in mature schizont crude membrane preparations and inhibition of P. falciparum ABS growth. S3A. […] The unbound EC50 values for the compounds in the parasite growth inhibition assay were consistently calculated to be sevenfold higher than the IC50 values in the biochemical assay. Given that PDEβ is dual specific (i.e., can hydrolyze both cAMP and cGMP), we also determined IC50 values for cGMP hydrolysis. […] The IC50 values measured for cGMP hydrolysis in blood-stage schizonts were generally similar to those for cAMP hydrolysis (Table 1). […]
The cyclic nucleotide hydrolytic activity of membrane-associated parasite PDE enzymes was measured by a scintillation proximity assay (SPA) ([18]) using lysates of mature P. falciparum schizonts or stage IV/V gametocytes. […] The IC50 values for the compounds were determined using threefold serial dilutions in duplicate. […] The reactions were terminated by addition of 25 μl of PDE SPA beads (PerkinElmer, RPNQ0150), and after 20 min of incubation at room temperature, scintillation was measured using a Wallac 1450 Microbeta Counter (PerkinElmer) for 30 s. […]

In test [4] the test system is P. falciparum stage V gametocytes (male gamete formation). In words: Exflagellation (male gamete formation) inhibition assay. Format: cell-based, Plasmodium falciparum. As to conditions: 2 μM, 48 hours. As for the experimental part:
The exflagellation inhibition assay was performed by capturing movement of exflagellation centers over time by video microscopy [adapted from a reported protocol ([52])]. For this carry-over format, mature stage V gametocytes were treated with 2 μM of each compound for 48 hours before induction of exflagellation in the presence of compound. To evaluate compound dose response, gametocytes were treated similarly at a set of concentrations representing a fourfold serial dilution. Mature gametocyte cultures (>95% stage V; 500 μl) were centrifuged at 3500 rpm for 30 s, and the pellet was resuspended in 30 μl of ookinete medium [RPMI 1640 medium containing L-glutamine (Sigma-Aldrich, R6504), gentamycin (0.024 mg/ml; HyClone, SV30080.01), 202 μM hypoxanthine (Sigma-Aldrich, H9636), 25 mM Hepes (Sigma-Aldrich, H4034), 0.2% glucose (Sigma-Aldrich, G6152), and 0.5% (w/v) AlbuMAX II (Invitrogen, Paisley, UK), supplemented with 100 μM XA and 20% human serum]. The activated culture (10 μl) was introduced into a Neubauer chamber and placed on the microscope platform to settle homogenously. Time was noted as time zero (T0), and the chamber was incubated at room temperature. Movement was recorded by video microscopy using a Carl Zeiss NT 6V/10W Stab microscope, fitted with a MicroCapture camera at 10× magnification, and then quantified by a semiautomated method, a modification of the method described previously ([53]). A series of 15 videos of 8 to 10 s each were captured at random locations between 15 and 22.5 min after incubation. Each video was analyzed using Icy bioimage analysis software to quantify the number of exflagellating centers. Compound IC50 values were determined with nonlinear curve fitting (GraphPad Prism 6), normalized to maximum and minimum inhibition.

For test [5], the target named is T2, human PDE5A1 (Homo sapiens, UniProt O76074).
T2 construct: GST (glutathione S-transferase); purchased BPS Bioscience BPS-60050
In words: Human PDE5 selectivity SPA. Format: biochemical. The note with it: IC50 PDE5A1 / IC50 PDEβ schizont lysates. As to the method:
(§1) The selectivity of the compounds on the parasite PDEs over the two human isoforms PDE5A1 and PDE6C was measured through a dose-response assay of their hydrolytic activity in presence of the compounds. Similarly to the parasite lysates, an SPA was carried out with the recombinant purified human glutathione S-transferase–tagged PDE5A1 or PDE6C (BPS Bioscience, BPS-60050 and BPS-60062) prepared in PDE assay buffer [10 mM tris-HCl (pH 7.4), 10 mM MgCl2, bovine serum albumin (0.1 mg/ml), and 0.05% Tween 20] at a concentration of 648 pg of enzyme per 50 μl of total volume per well. To determine the IC50 of the compounds, threefold serial dilutions in duplicate were performed. Briefly, the assays were carried out in flexible 96-well plates (PerkinElmer, 1450-401) by incubating the enzyme with the compounds and 5 μl of 200 nM cGMP dilution [[^3H]-cNMP tracer (PerkinElmer, cGMP-NET337250UC) in PDE assay buffer] to a total volume of 50 μl for 45 min at 37°C. The reactions were terminated by addition of 25 μl of PDE SPA beads (PerkinElmer, RPNQ0150), and after 20 min of incubation at room temperature, scintillation was measured using a Wallac 1450 Microbeta Counter (PerkinElmer) for 30 s. […] The selectivity of the compounds was expressed as the fold change in the IC50 obtained for PDE5A1 or PDE6C and the IC50 for the P. falciparum PDEβ schizont lysates.

Test [6] deals with P. falciparum stage IV/V gametocytes. Description: LDH-based gametocyte viability assay. Format: cell-based, Plasmodium falciparum. As to conditions: stage IV to V gametocytes. As for the experimental part: The pLDH assay was performed on late (>95% stage IV/V) gametocytes. Compound dilutions were placed in triplicate in 96-well plates in a final volume of 100 μl per well. DHA and MMV048 were used as positive drug controls. The gametocyte cultures (100 μl per well) were added to the 96-well plates to achieve a final gametocytemia and hematocrit of 2 and 1%, respectively, in a total incubation volume of 200 μl. Plates were incubated at 37°C for 72 hours, followed by the replacement of spent medium with drug-free culture medium (75% medium change) ([54], [55]). Plates were then incubated for a further 72 hours before assessing viability by measuring pLDH activity. Gametocyte viability was determined spectrophotometrically by measuring the activity of pLDH, according to a modified version of a published protocol ([56]). Briefly, 100 μl of Malstat reagent [0.21% (v/v) Triton X-100, 222 mM L-(+)-lactic acid, 54.5 mM tris, 0.166 mM APAD (Sigma-Aldrich, A5251), adjusted to pH 9 with 1 M NaOH] was transferred into a clean 96-well plate. A fixed volume of 20 μl of parasite suspension per well was added to the Malstat plate, followed by the addition of 25 μl of PES/NBT (0.239 mM phenazine ethosulfate and 1.96 mM nitro blue tetrazolium chloride). Absorbance was measured with a Multiskan Ascent 354 multiplate scanner (Thermo LabSystems, Finland) at 620 nm.

The test system of test [7] is P. falciparum stage V gametocytes (female gamete formation). In words: Female gamete formation inhibition assay. Format: cell-based, Plasmodium falciparum. As to conditions: 2 μM, 48 hours. As to the method: Mature gametocytes (>95% stage V) were treated with compounds (2 μM) for 48 hours before stimulating female gamete formation. To evaluate compound dose response, gametocytes were treated similarly at set concentrations representing a fourfold serial dilution. Female gamete activation was induced by both a temperature drop and the addition of 100 μM XA. Monoclonal anti-Pfs25 antibody (BEI Resources, catalog number MRA-28; 1:1000 dilution) conjugated to fluorescein isothiocyanate was used to detect female gametes. Image acquisition was performed using a Zeiss Axio Lab.A1 epifluorescence microscope with a 100/1.4 numerical aperture oil immersion objective and a Zeiss Axiocam 202 mono digital camera. Using a 100× objective, 30 images were taken per sample and analyzed manually. The number, size, roundness, and intensity of fluorescence of activated female gametocytes were evaluated. Compound IC50 values were determined with nonlinear curve fitting (GraphPad Prism 6), normalized to maximum and minimum inhibition.

Test [8] has as its target T3, human PDE6C (Homo sapiens, UniProt P51160).
T3 construct: GST (glutathione S-transferase); purchased BPS Bioscience BPS-60062
In words: Human PDE6 selectivity SPA. Format: biochemical. As to conditions: IC50 PDE6C / IC50 PDEβ schizont lysates. As to the method: as §1

The subject of test [9] is P. falciparum 3D7. In words: P. falciparum 3D7 LDH growth inhibition assay (asexual blood stage). Format: cell-based, Plasmodium falciparum. As to conditions: Plasmodium falciparum, 3D7, read-out: EC50 against ABS parasites. As for the experimental part: P. falciparum isolates (3D7/Dd2) were obtained from BEI Resources and were cultured using standard procedures as described elsewhere ([47]). Briefly, P. falciparum was grown in RPMI 1640 medium (10.3 g/liter) supplemented with L-glutamine (2 mM), hypoxanthine (150 μM), Hepes (25 mM), D-glucose (12 mM), sodium bicarbonate (25.7 mM), AlbuMAX II (0.5% or 5 g/liter) (pH 7.4), and 2% RBC (type O+, freshly prepared). Cultures were replenished with fresh medium and RBCs every other day. For RBC preparation, whole blood was centrifuged at 415g at room temperature for 12 min. After that, the plasma and buffy coat were removed, and packed RBCs were washed three times with 3 vol of RPMI 1640. Last, RBCs were resuspended in 1:1 vol of complete RPMI 1640 medium (containing 0.5% AlbuMAX II).
The P. falciparum 3D7 and Dd2 LDH growth inhibition assay was carried out as described elsewhere ([48]) with minor modification of the parasitological conditions (10 to 15% parasitemia with ≥80% rings). Data were normalized to percent growth inhibition with respect to […] (for 3D7, a mixture of 100 nM chloroquine and 100 nM atovaquone as 100% inhibition; for Dd2, a mixture of 200 nM DHA and 200 nM atovaquone as 100% inhibition) controls.

Test [10] relates to PDE6. Details: method as in PMID 29743944. As to conditions: cited from earlier work.
Test [11] has as its system malaria parasites. Details: method as in PMID 25951195, PMID 33262483. As to conditions: cited from earlier work.

Molecules are shown by their SMILES.

T1 sequence (Q8I6Z7 whole entry): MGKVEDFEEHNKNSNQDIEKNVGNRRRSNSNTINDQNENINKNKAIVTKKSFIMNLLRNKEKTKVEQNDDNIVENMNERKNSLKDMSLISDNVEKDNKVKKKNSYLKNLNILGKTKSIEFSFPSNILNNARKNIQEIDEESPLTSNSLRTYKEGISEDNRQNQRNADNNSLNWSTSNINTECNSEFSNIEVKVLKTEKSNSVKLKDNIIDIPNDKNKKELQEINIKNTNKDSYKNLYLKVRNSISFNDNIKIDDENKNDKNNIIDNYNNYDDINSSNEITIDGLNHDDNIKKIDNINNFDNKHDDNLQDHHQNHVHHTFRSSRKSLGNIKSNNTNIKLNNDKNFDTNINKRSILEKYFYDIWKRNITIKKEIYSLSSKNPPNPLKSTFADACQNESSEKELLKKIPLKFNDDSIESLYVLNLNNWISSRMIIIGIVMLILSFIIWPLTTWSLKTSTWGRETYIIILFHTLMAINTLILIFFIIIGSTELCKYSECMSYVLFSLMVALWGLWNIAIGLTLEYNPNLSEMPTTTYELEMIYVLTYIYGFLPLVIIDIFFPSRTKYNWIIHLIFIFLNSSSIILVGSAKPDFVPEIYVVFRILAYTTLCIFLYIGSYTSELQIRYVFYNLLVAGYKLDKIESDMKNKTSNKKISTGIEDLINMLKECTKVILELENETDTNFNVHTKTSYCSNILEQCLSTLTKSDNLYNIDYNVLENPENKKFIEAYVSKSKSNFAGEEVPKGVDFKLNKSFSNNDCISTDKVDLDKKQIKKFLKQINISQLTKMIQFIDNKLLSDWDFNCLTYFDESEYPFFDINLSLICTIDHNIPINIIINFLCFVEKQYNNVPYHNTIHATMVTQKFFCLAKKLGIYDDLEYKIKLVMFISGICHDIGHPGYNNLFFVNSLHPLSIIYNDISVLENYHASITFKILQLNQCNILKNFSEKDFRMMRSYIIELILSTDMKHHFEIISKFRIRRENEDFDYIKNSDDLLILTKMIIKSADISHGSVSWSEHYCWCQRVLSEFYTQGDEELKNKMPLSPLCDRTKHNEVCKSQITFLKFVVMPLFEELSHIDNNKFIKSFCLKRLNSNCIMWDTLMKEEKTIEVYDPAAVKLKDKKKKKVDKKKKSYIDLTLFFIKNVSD
T3 sequence (P51160 whole entry): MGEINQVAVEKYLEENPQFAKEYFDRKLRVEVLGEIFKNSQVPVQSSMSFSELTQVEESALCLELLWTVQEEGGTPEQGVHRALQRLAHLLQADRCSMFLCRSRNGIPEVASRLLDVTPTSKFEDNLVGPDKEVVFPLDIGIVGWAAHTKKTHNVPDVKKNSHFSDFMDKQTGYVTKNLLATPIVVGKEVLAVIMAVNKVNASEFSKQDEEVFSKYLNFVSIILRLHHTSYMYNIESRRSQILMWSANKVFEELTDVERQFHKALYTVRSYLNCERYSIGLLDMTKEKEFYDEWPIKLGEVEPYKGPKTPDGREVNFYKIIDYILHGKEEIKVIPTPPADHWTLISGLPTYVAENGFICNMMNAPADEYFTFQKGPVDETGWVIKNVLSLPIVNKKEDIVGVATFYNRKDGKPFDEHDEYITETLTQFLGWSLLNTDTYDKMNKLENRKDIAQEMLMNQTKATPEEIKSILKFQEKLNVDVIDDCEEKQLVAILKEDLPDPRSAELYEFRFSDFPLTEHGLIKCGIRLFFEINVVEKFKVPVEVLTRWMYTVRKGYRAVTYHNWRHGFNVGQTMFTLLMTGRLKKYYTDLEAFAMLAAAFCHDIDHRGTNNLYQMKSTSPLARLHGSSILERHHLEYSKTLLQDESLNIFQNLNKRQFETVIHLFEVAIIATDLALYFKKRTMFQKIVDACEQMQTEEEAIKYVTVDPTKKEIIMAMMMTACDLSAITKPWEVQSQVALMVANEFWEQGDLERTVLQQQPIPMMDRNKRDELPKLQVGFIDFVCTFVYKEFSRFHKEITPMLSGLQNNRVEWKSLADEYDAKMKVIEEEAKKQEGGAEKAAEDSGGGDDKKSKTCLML

The EC50 is the midpoint of the concentration-response curve. As usually defined, the IC50 is the concentration that inhibits the measured activity by half. On to `CC(C)c1n[nH]c2c(=O)[nH]c(Cc3ccccc3)nc12` [BIPPO, 5-benzyl-3-isopropyl-1H-pyrazolo[4,3-d]pyrimidin-7(6H)-one], for which, in test [1], the “Potency against recombinant human PDE9” value is 30 nM. The EC50 in test [2] is 400 nM. Besides, in test [3], the IC50 came to 9 nM.
For the molecule `CCc1c2nc(-c3cc(-c4ccccc4)cnc3OCC(C)C)[nH]c(=O)c2nn1CCOC` [SAL-0010028], the “% inhibition of exflagellation at 2 μM” value in test [4] was found to be 18.6 ± 15.8%. In test [5], the “Selectivity against human PDE5” value is recorded as 773 fold. In addition, in test [6], the “% inhibition gametocyte viability at 15 μM” value was found to be 57.1 ± 27.0%. Moreover, in test [7], the “% inhibition of female gamete formation at 2 μM” value came out at 6.9 ± 2.6%.
Turning to `CCCCOc1ncc(Br)cc1-c1nc2c(CC)n(CCOC)nc2c(=O)[nH]1` [SAL-0010039], the “% inhibition of exflagellation at 2 μM” value in test [4] was determined as 0%. For the same molecule, the “Selectivity against human PDE6” value in test [8] was determined as 338 fold. In addition, in [6], the “% inhibition gametocyte viability at 15 μM” value came out at 0%. Moreover, in test [7], the “% inhibition of female gamete formation at 2 μM” value was determined as 20.7 ± 2.3%.
Regarding `CCCc1nn(C)c2c(=O)[nH]c(-c3cc(S(=O)(=O)N4CCN(C)CC4)ccc3OCC)nc12` [sildenafil], the EC50 in test [9] is more than 25000 nM. Further, the “Selectivity (PDE5 over PDE6)” value in test [10] is on record as less than 10 fold. Further, the “IC50 against malaria parasites” value in [11] is on record as “mid-to-high micromolar range”. Moreover, the IC50 in test [3] is more than 10000 nM.
